Data as given in PubChem BioAssay (NCI).
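Following 48 hours of exposure in 96-well plates, responses at five concentrations were used to interpolate endpoints linearly. At the GI50, growth is halved. Definition used: TGI = concentration required for complete inhibition of growth.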

Assays:
Experiment in all cases: inhibition of tumour cell growth, NCI panel, 48 h
MALME-3M melanoma = system: MALME-3M melanoma
MDA-MB-435 = system: MDA-MB-435
COLO 205 colon = system: COLO 205 colon
HOP-62 NSCLC = system: HOP-62 NSCLC
SR leukemia = system: SR leukemia
BT-549 breast = system: BT-549 breast
TK-10 renal = system: TK-10 renal
T-47D breast = system: T-47D breast
SK-OV-3 ovarian = system: SK-OV-3 ovarian
UO-31 renal = system: UO-31 renal
RXF 393 renal = system: RXF 393 renal
SF-295 CNS = system: SF-295 CNS
HL-60(TB) leukemia = system: HL-60(TB) leukemia
NCI/ADR-RES ovarian = system: NCI/ADR-RES ovarian
786-0 renal = system: 786-0 renal
SN12C renal = system: SN12C renal
CAKI-1 renal = system: CAKI-1 renal
OVCAR-8 ovarian = system: OVCAR-8 ovarian
SF-539 CNS = system: SF-539 CNS
UACC-62 melanoma = system: UACC-62 melanoma
MDA-MB-231 breast = system: MDA-MB-231 breast
ACHN renal = system: ACHN renal
HS 578T breast = system: HS 578T breast
HCT-15 colon = system: HCT-15 colon
A498 renal = system: A498 renal
HOP-92 NSCLC = system: HOP-92 NSCLC
KM12 colon = system: KM12 colon
MCF7 breast = system: MCF7 breast
PC-3 prostate = system: PC-3 prostate
MOLT-4 leukemia = system: MOLT-4 leukemia
SNB-75 CNS = system: SNB-75 CNS
OVCAR-5 ovarian = system: OVCAR-5 ovarian
NCI-H460 lung = system: NCI-H460 lung
SF-268 CNS = system: SF-268 CNS
CCRF-CEM leukemia = system: CCRF-CEM leukemia
SK-MEL-5 melanoma = system: SK-MEL-5 melanoma
M14 melanoma = system: M14 melanoma
HT29 colon = system: HT29 colon
SNB-19 CNS = system: SNB-19 CNS
K-562 leukemia = system: K-562 leukemia
A549 NSCLC = system: A549 NSCLC
RPMI-8226 leukemia = system: RPMI-8226 leukemia
NCI-H23 lung = system: NCI-H23 lung
SK-MEL-2 melanoma = system: SK-MEL-2 melanoma
UACC-257 melanoma = system: UACC-257 melanoma
HCC-2998 colon = system: HCC-2998 colon
NCI-H226 lung = system: NCI-H226 lung
SW-620 colon = system: SW-620 colon
SK-MEL-28 melanoma = system: SK-MEL-28 melanoma
IGROV1 ovarian = system: IGROV1 ovarian
OVCAR-4 ovarian = system: OVCAR-4 ovarian
DU-145 prostate = system: DU-145 prostate

`Cc1cc2nc(C(Cl)Cl)nc(-c3cccs3)n2n1` gave a GI50 (MALME-3M melanoma) of 2210 nM, a TGI (MALME-3M melanoma) of 5310 nM and a GI50 (MDA-MB-435) of 1860 nM. For the same compound, the TGI (MDA-MB-435) was 3810 nM, the GI50 (COLO 205 colon) was 942 nM and the TGI (COLO 205 colon) was 3290 nM. For the same compound, the GI50 (HOP-62 NSCLC) was 938 nM, the TGI (HOP-62 NSCLC) was 4430 nM and the GI50 (SR leukemia) was 1430 nM. The TGI (SR leukemia) was > 100000 nM, the GI50 (BT-549 breast) was 7670 nM and the TGI (BT-549 breast) was > 100000 nM. The GI50 (TK-10 renal) was 2110 nM, the TGI (TK-10 renal) was 5920 nM and the GI50 (T-47D breast) was 1400 nM. It also gave a TGI (T-47D breast) of 7660 nM, a GI50 (SK-OV-3 ovarian) of 2150 nM and a TGI (SK-OV-3 ovarian) of 6510 nM. It also gave a GI50 (UO-31 renal) of 1670 nM, a TGI (UO-31 renal) of 5140 nM and a GI50 (RXF 393 renal) of 838 nM. For the same compound, the TGI (RXF 393 renal) was 2230 nM, the GI50 (SF-295 CNS) was 1270 nM and the TGI (SF-295 CNS) was 5800 nM. For the same compound, the GI50 (HL-60(TB) leukemia) was 346 nM, the TGI (HL-60(TB) leukemia) was 2390 nM and the GI50 (NCI/ADR-RES ovarian) was 1260 nM. The TGI (NCI/ADR-RES ovarian) was 4720 nM, the GI50 (786-0 renal) was 4700 nM and the TGI (786-0 renal) was > 100000 nM. The GI50 (SN12C renal) was > 100000 nM, the TGI (SN12C renal) was > 100000 nM and the GI50 (CAKI-1 renal) was 1660 nM. For the same compound, the TGI (CAKI-1 renal) was 5970 nM, the GI50 (OVCAR-8 ovarian) was 1270 nM and the TGI (OVCAR-8 ovarian) was > 100000 nM. For the same compound, the GI50 (SF-539 CNS) was 2270 nM, the TGI (SF-539 CNS) was 7490 nM and the GI50 (UACC-62 melanoma) was 3000 nM. For the same compound, the TGI (UACC-62 melanoma) was > 100000 nM, the GI50 (MDA-MB-231 breast) was 1550 nM and the TGI (MDA-MB-231 breast) was 4430 nM. It also gave a GI50 (ACHN renal) of 366 nM, a TGI (ACHN renal) of 2440 nM and a GI50 (HS 578T breast) of 1930 nM. For the same compound, the TGI (HS 578T breast) was 6210 nM, the GI50 (HCT-15 colon) was 1200 nM and the TGI (HCT-15 colon) was 4030 nM. It also gave a GI50 (A498 renal) of 1200 nM, a TGI (A498 renal) of 2660 nM and a GI50 (HOP-92 NSCLC) of 1410 nM. The TGI (HOP-92 NSCLC) was 3920 nM, the GI50 (KM12 colon) was 2020 nM and the TGI (KM12 colon) was 4510 nM. The GI50 (MCF7 breast) was 705 nM, the TGI (MCF7 breast) was > 100000 nM and the GI50 (PC-3 prostate) was 1410 nM. For the same compound, the TGI (PC-3 prostate) was 4320 nM, the GI50 (MOLT-4 leukemia) was 1480 nM and the TGI (MOLT-4 leukemia) was > 100000 nM. For the same compound, the GI50 (SNB-75 CNS) was 702 nM, the TGI (SNB-75 CNS) was 2940 nM and the GI50 (OVCAR-5 ovarian) was 1930 nM. It also gave a TGI (OVCAR-5 ovarian) of 5730 nM, a GI50 (NCI-H460 lung) of 333 nM and a TGI (NCI-H460 lung) of 1570 nM. It also gave a GI50 (SF-268 CNS) of 1980 nM, a TGI (SF-268 CNS) of 7270 nM and a GI50 (CCRF-CEM leukemia) of 4220 nM. For the same compound, the TGI (CCRF-CEM leukemia) was > 100000 nM, the GI50 (SK-MEL-5 melanoma) was 9610 nM and the TGI (SK-MEL-5 melanoma) was > 100000 nM. The GI50 (M14 melanoma) was 2100 nM, the TGI (M14 melanoma) was 4990 nM and the GI50 (HT29 colon) was 496 nM. For the same compound, the TGI (HT29 colon) was 2190 nM, the GI50 (SNB-19 CNS) was 1180 nM and the TGI (SNB-19 CNS) was 5990 nM. For the same compound, the GI50 (K-562 leukemia) was 2540 nM, the TGI (K-562 leukemia) was > 100000 nM and the GI50 (A549 NSCLC) was 374 nM. The TGI (A549 NSCLC) was 3510 nM, the GI50 (RPMI-8226 leukemia) was 1400 nM and the TGI (RPMI-8226 leukemia) was 5470 nM. For the same compound, the GI50 (NCI-H23 lung) was 953 nM, the TGI (NCI-H23 lung) was 2960 nM and the GI50 (SK-MEL-2 melanoma) was 3050 nM. For the same compound, the TGI (SK-MEL-2 melanoma) was > 100000 nM, the GI50 (UACC-257 melanoma) was 1870 nM and the TGI (UACC-257 melanoma) was 4550 nM. The GI50 (HCC-2998 colon) was 514 nM, the TGI (HCC-2998 colon) was 1910 nM and the GI50 (NCI-H226 lung) was > 100000 nM. For the same compound, the TGI (NCI-H226 lung) was > 100000 nM, the GI50 (SW-620 colon) was 1380 nM and the TGI (SW-620 colon) was 8100 nM. It also gave a GI50 (SK-MEL-28 melanoma) of 1830 nM, a TGI (SK-MEL-28 melanoma) of 3630 nM and a GI50 (IGROV1 ovarian) of 2430 nM. For the same compound, the TGI (IGROV1 ovarian) was > 100000 nM, the GI50 (OVCAR-4 ovarian) was 2120 nM and the TGI (OVCAR-4 ovarian) was 4740 nM. For the same compound, the GI50 (DU-145 prostate) was 289 nM and the TGI (DU-145 prostate) was 858 nM.
